IC50 data for two compounds are collected here from BindingDB's records for doi:10.1016/j.bmc.2012.01.011 (Korea Research Institute of Bioscience and Biotechnology, 2012).

The test addresses Neuraminidase (Influenza A virus (strain A/Brevig Mission/1/1918 H1N1), UniProt Q9IGQ6). Nature of the test: Inhibition of recombinant influenza A virus H1N1 A/Bervig_Mission/1/18 sialidase activity using 4-methylumbelliferyl-alpha-D-N-acetylneuraminic acid sodium salt hydrate as substrate by fluorimetric analysis.

Sequence of Neuraminidase (Q9IGQ6 whole entry): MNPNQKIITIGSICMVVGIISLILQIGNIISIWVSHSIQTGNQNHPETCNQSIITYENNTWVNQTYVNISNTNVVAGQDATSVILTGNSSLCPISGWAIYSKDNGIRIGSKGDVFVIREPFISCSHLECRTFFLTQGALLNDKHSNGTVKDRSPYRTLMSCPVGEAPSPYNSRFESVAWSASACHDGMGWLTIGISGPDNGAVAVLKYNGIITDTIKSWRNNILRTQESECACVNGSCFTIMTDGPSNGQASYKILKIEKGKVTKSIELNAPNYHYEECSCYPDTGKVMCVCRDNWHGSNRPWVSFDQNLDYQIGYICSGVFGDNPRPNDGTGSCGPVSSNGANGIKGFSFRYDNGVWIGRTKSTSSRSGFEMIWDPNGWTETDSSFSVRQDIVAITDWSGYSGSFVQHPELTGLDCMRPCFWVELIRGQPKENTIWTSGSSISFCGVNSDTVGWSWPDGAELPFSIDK

By IC50 is commonly meant the concentration that inhibits the measured activity by half. As to `CC(C)=CC=C(OC(=O)CC(C)(C)O)c1cc(O)c2c(O)ccc(O)c2c1O` [(R)-1-(5,8-dihydroxy-1,4-dioxo-1,4-dihydronaphthalen-2-yl)-4-methylpent-3-enyl 3-hydroxy-3-methylbutanoate], the IC50 stood at 40.5 µM.
As for `CC(C)=CC=C(OC(=O)C(C)C)c1cc(O)c2c(O)ccc(O)c2c1O`, the figure is 40.5 µM.
